Measurements: article PMC13114161 (Antibiotics, 2026)
Read-outs that look alike come from different tables or passages of the source.

Legend:
P. aeruginosa [1] = test system: P. aeruginosa; parameters: method as in PMID 35052908, PMID 35740123; conditions: against P. aeruginosa; cited from earlier work
[2] = Initial nephrotoxicity screen (BUN, creatinine); format: in vivo, Sprague Dawley rats; conditions: male rats, 10 mg/kg IV QD, 24 h after dosing
Experimental: BUN and CRE analyses were conducted by SRI International (Menlo Park, CA, USA). Adult male Sprague Dawley rats (n = 3 per group) received TXA11114 (10 mg/kg, IV, QD), and blood samples were collected 24 h after dosing.

[3] = Plasma protein binding (equilibrium dialysis); format: in vitro ADME
Experimental: Plasma protein binding was determined experimentally using equilibrium dialysis, with compound concentrations in plasma and buffer quantified by LC-MS/MS.

P. aeruginosa ATCC 27853 = test: Intracellular ATP levels; format: cell-based, Pseudomonas aeruginosa; conditions: three hours post-treatment
Experimental: Further, a deviation from normal membrane function can affect the activity of respiratory components and diminish ATP synthesis. Thus, an indirect approach to assess a drug’s membrane effect is by monitoring cellular ATP levels after treatment. To exclude ATP depletion as a TXA11114 MoA, bacterial ATP levels were evaluated three hours post-treatment. […] Azithromycin was used as a negative control.
P. aeruginosa intracellular ATP levels were determined as described previously using an ATP determination kit (Invitrogen, Life Technologies, Carlsbad, CA, USA). Bacterial culture strain ATCC 27853 was grown to the mid-log phase (OD600 = 0.7), washed, and resuspended in the same volume of PBSM (1X PBS, 1mM MgCl2). […] After treatment, the cells were lysed in chloroform which was subsequently removed by boiling at 80 °C. The persistent ATP from cell lysate was measured in a 96-well black flat-bottom plate by measuring the luminescence. Luminescence was converted to concentration from standard curve. […] Error bars represent the standard deviation of triplicates.

CYP3A4 = biological target: T1, CYP3A4 (Homo sapiens, UniProt P08684); test: Cytochrome P450 inhibition; format: in vitro ADME; conditions: human liver microsomes; read-out: CYP Inhibition IC50, 3A4
T1 construct: from tissue; host or cells: human liver microsomes
T1 sequence (P08684 whole entry): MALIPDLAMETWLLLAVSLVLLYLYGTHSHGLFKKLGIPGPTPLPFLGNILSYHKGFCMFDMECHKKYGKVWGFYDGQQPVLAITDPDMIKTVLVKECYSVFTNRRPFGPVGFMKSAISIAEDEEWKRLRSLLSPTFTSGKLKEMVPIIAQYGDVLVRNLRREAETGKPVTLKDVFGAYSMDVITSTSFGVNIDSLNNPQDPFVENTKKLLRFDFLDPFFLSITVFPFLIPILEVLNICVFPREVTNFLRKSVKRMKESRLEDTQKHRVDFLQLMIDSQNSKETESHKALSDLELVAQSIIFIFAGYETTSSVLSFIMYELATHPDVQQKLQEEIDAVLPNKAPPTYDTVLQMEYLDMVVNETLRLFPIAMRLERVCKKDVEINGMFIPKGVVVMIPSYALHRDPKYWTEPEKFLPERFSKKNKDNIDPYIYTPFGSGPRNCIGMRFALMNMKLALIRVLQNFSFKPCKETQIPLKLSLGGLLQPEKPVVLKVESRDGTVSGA
Experimental: (§1) Inhibition of CYP1A2, CYP2D6, CYP2C9, CYP2C19, and CYP3A4 by TXA11114 was assessed in human liver microsomes by measuring the inhibition of probe substrate metabolism. Phenacetin, bufuralol, diclofenac, S-mephenytoin, and midazolam were used as probe substrates for CYP1A2, CYP2D6, CYP2C9, CYP2C19, and CYP3A4, respectively. Corresponding metabolites (acetaminophen, OH-bufuralol, 4-OH diclofenac, 4-OH mephenytoin, and 1-OH midazolam) were quantified by LC-MS/MS. Selective inhibitors (fluvoxamine (CYP1A2), quinidine (CYP2D6), sulfaphenazole (CYP2C9), ticlopidine (CYP2C19), and ketoconazole (CYP3A4)) were used as positive controls. Test and control compounds, prepared in DMSO at various concentrations, were spiked into 2× microsomal reaction mixtures, and 50 µL aliquots were transferred to individual wells. Probe substrates (25 µL, 4× concentration) were added to the respective wells and pre-incubated for 5 min at 37 °C. Reactions were initiated by the addition of 25 µL NADPH (4×) and incubated for 5 min (CYP3A4), 10 min (CYP1A2, CYP2D6, CYP2C9), or 20 min (CYP2C19). Reactions were quenched with 100 µL ice-cold acetonitrile containing glipizide as an internal standard. Plates were centrifuged at 4000 rpm for 15 min, and 100 µL supernatants were analyzed by LC-MS/MS in MRM mode. […] Percent inhibition was calculated as 100 − percent activity. IC50 values were determined using GraphPad Prism (version 5.02).

CYP2D6 = biological target: T2, CYP2D6 (Homo sapiens, UniProt P10635); test: Cytochrome P450 inhibition; format: in vitro ADME; conditions: human liver microsomes; read-out: CYP Inhibition IC50, 2D6
T2 construct: from tissue; host or cells: human liver microsomes
T2 sequence (P10635 whole entry): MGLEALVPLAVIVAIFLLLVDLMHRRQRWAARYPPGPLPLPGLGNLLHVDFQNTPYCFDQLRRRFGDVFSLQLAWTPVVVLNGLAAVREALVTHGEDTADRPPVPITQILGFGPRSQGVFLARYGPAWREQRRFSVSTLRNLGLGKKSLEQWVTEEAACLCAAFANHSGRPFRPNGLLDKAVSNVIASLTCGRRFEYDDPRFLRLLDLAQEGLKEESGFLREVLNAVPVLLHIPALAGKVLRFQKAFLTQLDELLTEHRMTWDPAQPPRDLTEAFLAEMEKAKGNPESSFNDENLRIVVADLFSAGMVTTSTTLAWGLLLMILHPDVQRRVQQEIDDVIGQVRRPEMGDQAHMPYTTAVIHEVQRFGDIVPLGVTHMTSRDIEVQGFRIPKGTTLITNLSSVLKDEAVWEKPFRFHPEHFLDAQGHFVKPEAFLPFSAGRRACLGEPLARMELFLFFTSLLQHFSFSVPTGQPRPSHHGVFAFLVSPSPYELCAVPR
Experimental: as §1

Microsomal stability = format: in vitro ADME; conditions: rat, liver microsomes, pH 7.4; read-out: Microsome Stability t1/2
Experimental: The metabolic stability of TXA11114 was evaluated in liver microsomes from human (HLM), dog (DLM), rat (RLM), and mouse (MLM). Test compound disappearance over time was monitored by LC-MS/MS. Verapamil (HLM and RLM) and imipramine (DLM and MLM) were used as positive controls. […] Aliquots (70 µL) were transferred to 96-well reaction plates and pre-incubated at 37 °C for 5 min. Reactions were initiated by adding 30 µL NADPH (final concentration 1 mM). Control incubations lacking NADPH were included to assess non-enzymatic degradation. Reactions were terminated at 0, 5, 15, 30, and 60 min by the addition of 100 µL ice-cold acetonitrile containing glipizide as an internal standard.

P. aeruginosa [4] = test: MIC potentiation of antimicrobial agents by EPIs; format: cell-based, Pseudomonas aeruginosa; conditions: 1/16 MIC
Experimental: In contrast, the activities of gentamicin and imipenem were unchanged in the presence of TXA11114 under the conditions tested. Although gentamicin can be transported by the MexXY efflux system, the absence of potentiation in this assay is not sufficient to draw conclusions regarding MexXY inhibition or overall efflux specificity.
MIC assays for potentiation of antimicrobial activity against P. aeruginosa were performed as described previously.

Plasma stability = format: in vitro ADME; conditions: read-out: Plasma stability t1/2
Experimental: Plasma stability was assessed by incubating the compound in plasma at 37 °C and monitoring parent compound disappearance over time by LC-MS/MS. Half-life values were calculated assuming first-order kinetics.

P. aeruginosa DA7232 = test: Levofloxacin accumulation assay; format: cell-based, Pseudomonas aeruginosa; conditions: vs vehicle-treated controls
Experimental: The bacterial culture samples were treated on ice for 15 min, centrifuged, washed with PBSMG (1X PBS, 1 mM MgCl2, 100 mM glucose) and then resuspended in 1 mL of glycine-HCl buffer (pH 3.0) overnight for cell lysis, followed by centrifugation. The fluorescence of 100 µL of supernatant was read at 490 nm following a 355 nm excitation in a SpectraMax iD5 spectrophotometer (Molecular Devices, San Jose, CA, USA).

SMILES | Lowest concentration enhancing activity of monobactams, fluoroquinolones, sulfonamides and tetracyclines (P. aeruginosa [1]) [µg/mL] | Blood Urea Nitrogen [2] [mg/dL] | Creatinine [2] [mg/dL] | fraction unbound ([3]; dog) | fraction unbound ([3]; human, across the four species tested, read-out: Plasma protein binding) | fraction unbound ([3]; human, read-out: Protein Binding) | fraction unbound ([3]; mouse) | fraction unbound ([3]; rat) | Cellular ATP level (P. aeruginosa ATCC 27853) | IC50 (CYP3A4) [µM] | IC50 (CYP2D6) [µM] | half-life at 1 µM (Microsomal stability) [h] | Lowest effective concentration for potentiation (P. aeruginosa [4]) [µg/mL] | half-life (Plasma stability; dog) [h] | half-life (Plasma stability; mouse) [h] | half-life (Plasma stability; rat) [h] | Intracellular levofloxacin accumulation (P. aeruginosa DA7232)
NC[C@@H]1CN[C@H](CNC(=O)c2cc3ccc(-c4ccc(F)cc4)cc3[nH]2)C1 [TXA09155] | 6.25 | – | – | – | – | – | – | – | – | – | – | – | – | – | – | – | –
NCC(F)C[C@@H](N)CNC(=O)c1cc2ccc(-c3ccc(F)cc3)cc2[nH]1 (stereo partly drawn) [TXA11114, N-((2R)-2,5-diamino-4-fluoropentyl)-6-(4-fluorophenyl)-1H-indole-2-carboxamide] | – | 15.3 | 0.22 | 0.011 | 0.01 to 0.02 | 0.01 | 0.011 | 0.015 | did not result in ATP depletion | 63 | > 100 | > 1 | 6.25 | > 2 | > 2 | > 2 | marked increase in intracellular levofloxacin accumulation
